In brackets after ≈: the same amount, converted by molar mass.
Columns and labels:
[1] = Stability test for one month, purity by HPLC; format: physicochemical; settings: for Day 30 at 25° C. (purity): HPLC purity after 30 days at 25° C.; for Day 0 (purity): HPLC purity, baseline of stability test
Protocol: Stability test: The compounds were tested for their stability at 25° C. for one month, using HPLC to measure the purity. […] Compound 2 is not stable at −30° C. […] (Table F).

[2] = Stability test for one month, purity by HPLC; format: physicochemical; settings: HPLC purity after 30 days at 0° C.
[3] = One-month toxicity studies in rats; format: in vivo; settings: 8 mg/kg/day females and 16 mg/kg/day males
[4] = Solubility measurement (HPLC); format: physicochemical; settings: for solubility at 30 min: pH 7.0 buffer solution (20 mM), aqueous buffer, thermodynamic from solid
Protocol: Preparation of reference standard solution: 2 mg of Compound was added individually to 100 mL volumetric flask each. The compound was diluted with acetonitrile to 100 mL.
Preparation of sample solution: 2 mg of Compound was added individually to 2 mL eppendorf tube (EP), followed by addition of 1 mL of pH 7.0 or 10.0 buffer solution (20 mM). The solution was shaken for 2 minutes and left for 30 minutes at 25° C. After standing for 30 minutes, precipitate was formed in the bottom of the EP. The solutions were filtered through a 0.2 um membrane filter, and then diluted by 50 times with water.
The standard and sample solutions were injected into the HPLC on a Shim-Pack CLC-ODS C18 column (150 mm×6.0 mm, 5 μm) with the same volume. The mobile phase consisted of acetonitrile with 2% trichloromethane—20 mM KH2PO4 buffer (pH=7.0) at a flow rate of 1 mL/minute (40:60). The detection wavelength is at 264 nm. Calculation: solubility of sample=the concentration of standard×Area of sample×50/Area of standard.

[5] = system: BaF3-SLC34A2-ROS1 cell line xenograft; experiment: In vivo xenograft assay, subcutaneous BaF3-SLC34A2-ROS1 in nude mice; design: species or system Balb/c nude mice; settings: 5 mg/kg oral gavage once daily; for Tumor weight at Day 20: nude mice, control 2.118 g
From the text: A representative protocol for the in vivo experiment is as followed to establish the subcutaneous BaF3—SLC34A2-ROS1 cell line xenograft model in nude mice and to evaluate the in vivo therapeutic efficacy of the compounds:
Animals: Male Balb/c nude mice (6˜8 weeks old) were obtained from SLAC Laboratory Animal, Shanghai, China. Animals were maintained under SPF conditions in sterile filter top cages and housed on HEPA-filtered ventilated racks. Animals received sterile rodent chow and water ad libitum.
Cell line: BaF3—SLC34A2-ROS1, S.C.
Xenograft Models in Athymic Mice: Cells for implantation into athymic mice were harvested and pelleted by centrifugation at 1200 r/min for 5 min. Cells were washed once and resuspended in sterile PBS buffer with 5×10^6 in 200 μl. Then cells were implanted s.c. into the right scapular region of each mouse and allowed to grow to 200-300 mm^3 before the administration of compound.
Preparation of the Dose Formulation: each compound was suspended in 0.5% sodium carboxymethyl cellulose (CMC-Na). […]
Observations: After inoculation, the animals are checked daily for morbidity and mortality. At the time of routine monitoring, the animals are checked for any effects of tumor growth and treatments on normal behavior such as mobility, body weight gain/loss (body weights are measured twice weekly or every other day), eye/hair matting and any other abnormal effect. Death and observed clinical signs are recorded on the basis of the numbers of animals within each subset.
Tumor Size Measurements: Tumor volume was determined by measurement with electronic vernier calipers every 3 days and tumor volume was calculated as the product of its length×width2×0.5. […]
Percentage (%) inhibition values were measured for drug-treated mice compared with vehicle-treated mice and are calculated as follows: Tumor growth inhibition (TGI, %)=100−[MTV treated/MTV control]×100, where MTV is the median tumor volume. Significant differences between the treated versus the control groups (p<0.05) were determined using t test. […]

Ba/F3 EML4-ALK-L1196M = experiment: Cell proliferation assay (CTG), Ba/F3 EML4-ALK-L1196M; format: cell-based; settings: 72 hours
Protocol: (§1) A Representative Number of Compounds were Assayed Against BAF3 Cell Lines Using the Cell Proliferation Assays:
(§2) Cell Culture and Inoculation:
(§3) 1. Cells in logarithmic growth phase were harvested and counted by platelet counter. Trypan blue exclusion method was used to detect the cell viability to ensure that the cell viability was above 90%.
(§4) 2. Adjust the cell concentration; 90 μL cell suspension was added to 96 well plates respectively.
(§5) 3. Cells in 96-well plate were cultured overnight at 37° C., 5% CO2 and 95% of humidity.
(§6) Drug Dilution and Dosing:
(§7) 1. Prepare 10-fold drug solution with the highest concentration of 100 μM, 9 concentrations and 3.16-fold dilution. Add 10 μL of drug solution to each well of 96-well plate inoculated with cells, and set up 3 duplicate wells for each drug concentration.
(§8) 2. Cells in 96-well plates with drug added were cultured for 72 hours at 37° C., 5% CO2 and 95% of humidity, and then […]-GLO® (CTG) analysis was performed.
(§9) 1. Melt CTG reagent and equilibrate cell plates to room temperature for 30 minutes.
2. […]
(§10) 5. Read the cold light value.
(§11) The data were analyzed by GraphPad Prism 5.0 software, and the dose-effect curve was obtained by fitting the data by nonlinear S-curve regression, and IC50 value was calculated accordingly.
(§12) Cell survival rate (%)=(Lumdrug to be tested−Lumculture solution control)/(Lumcell control−Lumculture solution control)×100%. Lum is luminescence. […]

CYP 3A4 = CYP 3A4 (Homo sapiens (Human), UniProt P08684); experiment: P450 3A4 assay in human liver microsomes (CYP inhibition); format: in vitro ADME; settings: for IC50: testosterone probe substrate
Protocol: The final concentrations of DMSO and acetonitrile were equal to or less than 0.1%.
The column temperature was maintained at ambient temperature (25° C.). […] The flow rate was maintained at 0.6 mL/min.

Ba/F3 EML4-ALK-WT = experiment: Cell proliferation assay (CTG), Ba/F3 EML4-ALK-WT; format: cell-based; settings: Mus musculus, BaF3, 72 hours
Protocol: as §1, §2, §3, §4, §5, §6, §7, §8, §9
2. […]
as §10, §11, §12

[6] = PK study (bioavailability); format: in vivo; settings: rats; 1 mg/kg IV and 10 mg/kg orally; parent compound plus major metabolites
Protocol: A representative protocol for the PK (pharmacokinetic) assay was as followed: Compounds were given either IV or orally to the same animals. The dose for each compound was 1 mg/kg (volume 5 ml/kg) IV and 10 mg/kg (volume 10 ml/kg) orally. The formulation for IV was in 10% SOLUTOL® HS 15+90% Phosphate-Buffered Saline at […]. A 100% (0.5% Tween 80 in 0.5% methylcellulose (MC) in water) at […] suspension was used for the oral formulation. Sample collection: for the IV route, plasma samples were collected at the time points of 0.083, 0.25, 0.5, 1, 2, 4, 8 and 24 hr. For the oral route, plasma samples were collected at the time points of 0.25, 0.5, 1, 2, 4, 8 and 24 hr. Total bioavailability is calculated by adding parent compound and major metabolites. Analysis: LC-MS/MS was used to calculate PK parameters: t1/2, tmax, Cmax, Vss and AUC, etc.
The following Table E lists selected compounds and their bioavailability (F).
Compound 3 and 4 have much improved bioavailability (F=100%).

Sequence of CYP 3A4 (P08684 whole entry): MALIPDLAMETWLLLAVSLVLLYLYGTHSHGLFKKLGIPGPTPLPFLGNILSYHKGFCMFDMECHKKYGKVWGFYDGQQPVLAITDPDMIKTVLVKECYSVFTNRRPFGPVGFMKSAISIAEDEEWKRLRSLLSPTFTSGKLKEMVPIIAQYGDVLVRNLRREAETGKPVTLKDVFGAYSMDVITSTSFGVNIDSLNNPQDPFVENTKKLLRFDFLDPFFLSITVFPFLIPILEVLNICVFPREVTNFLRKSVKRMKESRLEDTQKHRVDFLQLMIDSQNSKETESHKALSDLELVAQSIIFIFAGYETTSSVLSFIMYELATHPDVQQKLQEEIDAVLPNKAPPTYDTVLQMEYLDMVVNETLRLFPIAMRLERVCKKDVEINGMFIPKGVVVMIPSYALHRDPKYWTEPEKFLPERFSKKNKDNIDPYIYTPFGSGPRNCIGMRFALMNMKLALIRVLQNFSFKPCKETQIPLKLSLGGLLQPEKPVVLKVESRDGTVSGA

Row | Structure (SMILES) | Stability at 0° C. or 25° C. (in words) ([1]; one month) | Day 30 at 25° C. (purity) [1] [%] | Day 0 (purity) [1] [%] | Day 30 at 0° C. (purity) [2] [%] | solubility at 30 min ([4]; pH 7.0 buffer (20 mM), 25° C.) [µg/mL] | Tumor weight at Day 20 [5] [g] | IC50 (CYP 3A4) [µM] | further results
1 | CC(=O)NCC(=O)Nc1ncc2cc1O[C@H](C)c1cc(F)ccc1C(=O)N(C)Cc1nn(C)c(C#N)c1-2 [Compound 3] | no significant changes | 99.16 | 99.24 | 99.18 | 772 (≈ 1530 µM) | 0.327 | 279 | IC50 (Ba/F3 EML4-ALK-L1196M): 0.051 µM; CYP 3A4 inhibition (in words) (CYP 3A4; compared with Lorlatinib and Compound 2): much weaker inhibition; Solubility at pH=7.0 (in words) ([4]; compared with compound 2 and Lorlatinib): much higher solubility; Tumor growth inhibition at day 20 (in words) ([5]; compared with Lorlatinib): significant better tumor growth inhibition; IC50 (Ba/F3 EML4-ALK-WT): 0.0028 µM
2 | C[C@H]1Oc2cc(cnc2NC(=O)CN)-c2c(nn(C)c2C#N)CN(C)C(=O)c2ccc(F)cc21 [Compound 2, reference compound] | – | 86.14 | 97.28 | 92.58 | – | – | 10 | Stability at 25° C. (in words) ([1]; 25° C., one month): decomposed significantly; Major impurity A at Day 0 ([1]; HPLC, Day 0): 1.13%; Major impurity B at Day 0 ([1]; HPLC, Day 0): 1.39%; Major impurity A at Day 30 ([1]; HPLC, Day 30 at 25° C.): 3.98%; Major impurity B at Day 30 ([1]; HPLC, Day 30 at 25° C.): 8.34%; Stability at −30° C. (in words) ([1]; −30° C.): not stable; Solubility at pH 7.0 ([4]; pH 7.0 buffer (20 mM), 25° C.): 0.091 mg/mL; Total F (%) (oral bioavailability) [6]: 49%
3 | COC(=O)NCC(=O)Nc1ncc2cc1O[C@H](C)c1cc(F)ccc1C(=O)N(C)Cc1nn(C)c(C#N)c1-2 [Compound 4] | no significant changes | 97.25 | 97.23 | 97.13 | – | – | – | –

Continued, in another order:

Row | Stability at 0° C. or 25° C. (in words) ([1]; one month) | Day 30 at 25° C. (purity) [1] [%] | Day 0 (purity) [1] [%] | Day 30 at 0° C. (purity) [2] [%] | solubility at 30 min ([4]; pH 7.0 buffer (20 mM), 25° C.) [µg/mL] | Structure (SMILES) | Tumor weight at Day 20 [5] [g] | IC50 (CYP 3A4) [µM] | further results
4 | no significant changes | 99.05 | 99.05 | 99.01 | – | CCOC(=O)NCC(=O)Nc1ncc2cc1O[C@H](C)c1cc(F)ccc1C(=O)N(C)Cc1nn(C)c(C#N)c1-2 [Compound 5] | – | – | –
5 | – | – | – | – | 29 (≈ 71.4 µM) | C[C@H]1Oc2cc(cnc2N)-c2c(nn(C)c2C#N)CN(C)C(=O)c2ccc(F)cc21 [Lorlatinib, reference compound] | 0.531 | – | Prothrombin time [3]: shorten time; #LYMPH and Red blood cell in blood ([3]; end of administration and recovery periods): decreased

Source: patent publication US12338251B2, “Substituted macrocycles useful as kinase inhibitors” (TELIGENE LTD, priority 2019, dated 2025)
